Source: patent US20040176349A1, “Antibacterial composition” (priority 2001, published 2004)
Converted amounts (≈) assume the structure as drawn.

How the values were obtained:
[1] = system: E. faecalis ATCC 10541; assay: Checkerboard microdilution MIC with PFOB, Table 2; format: cell-based; conditions: E. faecalis ATCC 10541; alone
Excerpt: The aim of the study was to detect any synergy between PFOB and the other antibiotics. For the purposes of the study, synergy was defined in accordance with the FIC (fractional inhibitory concentration) index, as disclosed by Lorian (1991, In “Antibiotics in Laboratory Medicine” 3rd edition, Eds. Williams & Wilkins; esp. p 434-443).

[2] = system: E.faecalis 78097 (van B); assay: Checkerboard microdilution MIC with PFOB, Table 2; format: cell-based; conditions: E.faecalis 78097 (van B); alone
Excerpt: (§1) The aim of the study was to detect any synergy between PFOB and the other antibiotics. For the purposes of the study, synergy was defined in accordance with the FIC (fractional inhibitory concentration) index, as disclosed by Lorian (1991, In “Antibiotics in Laboratory Medicine” 3rd edition, Eds. Williams & Wilkins; esp. p 434-443). In essence, if the combination of test compounds gives at least a 4-fold reduction in the FIC value for each compound, then a synergy may be considered to exist (i.e. FIC of the combination <0.5=synergy; FIC 0.5-2.0=“indifference”; and FIC >2=antagonism).
(§2) In Table 2, results in the checkerboard indicating synergy are hatched, and specific optimum synergistic combinations are boxed.

[3] = system: E. faecalis 5659 (vanA); assay: Checkerboard microdilution MIC with PFOB, Table 2; format: cell-based; conditions: E. faecalis 5659 (vanA); alone
Excerpt: as §1, §2

[4] = system: E. faecalis ATCC 29212; assay: Checkerboard microdilution MIC with PFOB, Table 2; format: cell-based; conditions: E. faecalis ATCC 29212; alone
Excerpt: as §1, §2

[5] = system: VRE 300 1590; assay: MIC, microbroth dilution (NCCLS), Table 1; format: cell-based, Enterococcus; conditions: compound alone; VRE 300 1590, vancomycin-resistant
Procedure: (§3) The minimum inhibitory concentration (MIC) of the compounds was determined using the microbroth dilution technique in accordance with NCCLS guidelines, employing Mueller-Hinton broth (National Committee for Clinical Laboratory Standards, NCCLS, 1995 “Methods for dilution antimicrobial susceptibility tests for bacteria that grow aerobically”—approved standard M7-A5).
(§4) The compounds were tested in isolation, at different concentrations.

[6] = system: VRE 1662; assay: MIC, microbroth dilution (NCCLS), Table 1; format: cell-based, Enterococcus; conditions: compound alone; VRE 1662, vancomycin-resistant
Procedure: as §3, §4

[7] = system: VRE 300 2043; assay: MIC, microbroth dilution (NCCLS), Table 1; format: cell-based, Enterococcus; conditions: compound alone; VRE 300 2043, vancomycin-resistant
Procedure: as §3, §4

[8] = system: VRE 300 1562; assay: MIC, microbroth dilution (NCCLS), Table 1; format: cell-based, Enterococcus; conditions: compound alone; VRE 300 1562, vancomycin-resistant
Procedure: as §3, §4

[9] = system: Enterococcus strains; assay: MIC against Enterococcus strains, summary of Example 1; format: cell-based; conditions: compound alone; all strains of Table 1; in words
Procedure: as §3, §4

[10] = system: E. faecalis SFZ (vancomycin-sensitive isolate, VSE); assay: Time-kill experiment (viable count); format: cell-based; conditions: FIG. 2, ceftazidime alone at 128 mg/L, PFOB alone at 64 mg/L
Excerpt: FIG. 2 is a graph of Log viable count (cfu per ml) against time (in hours) for the VSE isolate in the presence or absence of the drugs. […] The isolates used in the Example are purely illustrative and not especially unusual.

[11] = system: enterococcal penicillin binding proteins (PBPs); assay: Radiolabelled penicillin competition assay for PBP affinity; design: species or system Enterococcus; conditions: in words
Procedure: Further experiments were conducted in an attempt to determine the mechanism of the unexpected synergy between antibiotics (as exemplified by Ceftazidime) and compounds in accordance with general formula I or II (as exemplified by PFOB). The affinity of PFOB for enterococcal penicillin binding proteins (PBPs) was investigated using a conventional radiolabelling assay (Boulton & Orr 1983 “Detection of bacterial penicillin binding proteins and their role in the interpretation of the mode of action of beta-lactam antibiotics” In “Antibiotics: Assessment of antimicrobial activity and resistance” Eds. Denver & Quesnel. Society for […], Technical Series 18, pp161-182, Academic Press”). In this assay, the inner bacterial membrane containing the PBPs was extracted, exposed to differing concentrations of test agent (i.e. PFOB) and excess radiolabelled penicillin, followed by separation and visualisation of the PBPs using gel electrophoresis and fluorography.

[12] = system: E. faecalis 24592; assay: MIC, microbroth dilution (NCCLS), Table 1; format: cell-based; conditions: compound alone; E. faecalis 24592, vancomycin-susceptible
Procedure: as §3, §4

[13] = system: E. faecium NCTC 7171; assay: MIC, microbroth dilution (NCCLS), Table 1; format: cell-based; conditions: compound alone; E. faecium NCTC 7171, vancomycin-susceptible
Procedure: as §3, §4

[14] = system: E. faecalis SFZ; assay: MIC, microbroth dilution (NCCLS), Table 1; format: cell-based; conditions: compound alone; E. faecalis SFZ, vancomycin-susceptible
Procedure: as §3, §4

[15] = system: E. faecalis Phillips; assay: MIC, microbroth dilution (NCCLS), Table 1; format: cell-based; conditions: compound alone; E. faecalis Phillips, vancomycin-susceptible
Procedure: as §3, §4

[16] = system: E. faecalis NCTC 5957; assay: MIC, microbroth dilution (NCCLS), Table 1; format: cell-based; conditions: compound alone; E. faecalis NCTC 5957, vancomycin-susceptible
Procedure: as §3, §4

[17] = system: E. hirae ATCC 10541; assay: MIC, microbroth dilution (NCCLS), Table 1; format: cell-based; conditions: compound alone; E. hirae ATCC 10541, vancomycin-susceptible
Procedure: as §3, §4

## C[C@@H](O)[C@H]1C(=O)N2C(C(=O)O)=C(C(C)(C)CCCN)O[C@H]12 [(1′R, 5R, 6R)-2-(4-amino-1,1-dimethylbutyl)-6-(1′-hydroxyethyl) oxapenem-3-carboxylic acid]
[1]
  MIC (alone) of PFOB: 16 mg/L
[2]
  MIC (alone) of PFOB: >32 mg/L
[3]
  MIC (alone) of PFOB: >32 mg/L
[4]
  MIC (alone) of PFOB: >32 mg/L
[5]
  MIC: >128 mg/L
[6]
  MIC: >128 mg/L
[7]
  MIC: 32 mg/L (≈ 107 µM)
[8]
  MIC: 128 mg/L (≈ 429 µM)
[9]
  activity in isolation against the Enterococcus strains tested: no significant activity
[10]
  effect on growth (viable count, time-kill): some inhibitory effect on growth
[11]; FIG. 4A versus FIG. 4B
  affinity for PBPs compared with clavulanic acid: much higher affinity
[11]; FIG. 4A, PFOB concentration of 3 mg/L
  binding to PBPs in competition with radiolabelled penicillin: nearly all PBPs are bound by PFOB, except PBP3
[12]
  MIC: 32 mg/L (≈ 107 µM)
[13]
  MIC: 16 mg/L (≈ 53.6 µM)
[14]
  MIC: 64 mg/L (≈ 215 µM)
[15]
  MIC: 32 mg/L (≈ 107 µM)
[16]
  MIC: 32 mg/L (≈ 107 µM)
[17]
  MIC: 16 mg/L (≈ 53.6 µM)
